How the values were obtained:
recombinant human DAO = biological target: T1, recombinant human DAO (Homo sapiens, UniProt P19801); assay: DAO inhibition; format: biochemical; settings: 2 hours incubation
T1 construct: Gift: Prof; Boehm, Department of Clinical Pharmacology, Medical University, Vienna
T1 sequence (P19801 20-751): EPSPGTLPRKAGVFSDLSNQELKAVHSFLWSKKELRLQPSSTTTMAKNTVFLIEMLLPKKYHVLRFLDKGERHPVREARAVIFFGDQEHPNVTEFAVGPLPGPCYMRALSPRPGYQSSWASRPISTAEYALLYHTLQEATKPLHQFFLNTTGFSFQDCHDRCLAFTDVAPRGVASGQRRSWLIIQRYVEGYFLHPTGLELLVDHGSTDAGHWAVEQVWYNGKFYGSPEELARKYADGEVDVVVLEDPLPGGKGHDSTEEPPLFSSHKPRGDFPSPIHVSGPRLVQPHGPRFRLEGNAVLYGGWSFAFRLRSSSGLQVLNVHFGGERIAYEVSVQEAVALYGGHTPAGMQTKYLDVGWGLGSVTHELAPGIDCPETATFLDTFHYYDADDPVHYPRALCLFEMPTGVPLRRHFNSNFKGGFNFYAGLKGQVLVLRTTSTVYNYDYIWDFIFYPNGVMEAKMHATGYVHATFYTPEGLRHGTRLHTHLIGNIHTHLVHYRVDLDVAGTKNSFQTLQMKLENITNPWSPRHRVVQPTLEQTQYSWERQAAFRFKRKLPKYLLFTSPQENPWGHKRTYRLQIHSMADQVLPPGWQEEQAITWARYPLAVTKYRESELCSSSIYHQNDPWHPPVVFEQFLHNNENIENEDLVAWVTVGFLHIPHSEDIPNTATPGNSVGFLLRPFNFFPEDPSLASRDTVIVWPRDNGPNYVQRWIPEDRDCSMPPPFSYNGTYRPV
Procedure: The specificity of the compounds of this invention was tested by determining their ability to inhibit DAO activity in vitro, using recombinant human DAO (100 ng/mL; kindly provided by Prof. Boehm, Department of Clinical Pharmacology, Medical University, Vienna). The assay was performed in a similar way as for human SSAO/VAP-1 (Example 8) except, the incubation with the test compounds was extended to 2 hours, and the substrate […] was used at 100 μM in place of benzylamine.

[1] = Skin permeability, Franz diffusion cell system; format: in vitro ADME, human; settings: topical formulation containing 3% compound; for Concentration of Compound 1 in the receptor chamber: human skin
Excerpt: Skin permeability is essential when considering topical application to treat skin conditions. One way to evaluate skin permeability is to use a Franz diffusion cell system with human skin as a membrane (Particle Sciences; Technical Brief 2009; Vol. 10). The donor compound, topically formulated, is applied on the top chamber and diffusion through the skin is monitored at relevant time points by sampling the solution in the receptor chamber via the sampling port. The concentration of Compound 1 was determined by quantitative HPLC analysis.

skin fibrosis = assay: Mouse model of sclerosis (bleomycin-induced skin fibrosis); format: in vivo, male C57BL/6; settings: […] in a topical formulation from day 3, histology after 21 days
Procedure: Subcutaneous bleomycin (0.1 U/kg) was administered every second day (for 21 days total) to male C57BL/6 to induced skin fibrosis as a model of sclerosis. […] Histology was completed after 21 days.

LOX = assay: Lysyl oxidase activity in rat skin after topical administration; format: in vivo; settings: for dorsal skin LOX activity compared to the placebos: rats, topical
Procedure: Dorsal and ventral skin from rats treated by topical application of compound 1 were semi-defrosted at ice-cold temperature and three 3 mm punches of the skin were taken using a tissue puncher. The core sample was microdissected to leave only the epidermal and dermal layers. All other layers were removed. […] The tissue punch was placed in a 1.5 mL Eppendorf tube and snap-frozen in liquid nitrogen. A mortar and pestle stored at −80° C. was then used to pulverize skin tissue. The pulverized sample was further washed in 1 mL of ice-cold washing buffer ((0.15 M NaCl, 50 mM sodium borate, pH 8.0, with PMSF: Sigma P7626, 0.25 mM, and Aprotinin: Sigma A6279, 1 μL per mL). The tissue buffer was centrifuged (20000 g for 10 minutes at 4° C.), and the supernatant was discarded. Fresh wash buffer (1 mL) was added and the Eppendorf tube was agitated for 5 minutes at 4° C. on a vortex shaker. Washing was repeated two more times. After the last wash, the supernatant was completely removed. The rat dorsal skin pellet was re-suspended in 6 M urea 50 mM sodium borate buffer, according to sample weight to achieve final urea concentration of 4.5 M. The extraction buffer contains protease inhibitors; aprotinin and PMSF as above. Each homogenate was well-mixed by continuous vortexing at 4° C. for a 3 hour extraction. After 3 hours, […] 50 mM sodium borate buffer was added to each sample according to sample size to achieve the final urea concentration of 2.4 M. Protease inhibitors—aprotinin and PMSF—are present. The mixture was again centrifuged at (20000 g at 4° C. for 10 minutes) and the supernatant was collected in a clean, cold eppendorf. To 50 μl of sample, pargyline (final concentration at 0.5 mM) and mofegiline (final concentration at 1 μM) were added. Enzyme mix (25 μL) was transferred to the test plate with or without […] (0.5 μl 30 mM) and incubated at 37° C. for 30 minutes. Reaction mix (25 μL) is added to each well, plate fluorescence is measured every 2.5′ with or without 100 μM BAPN for the low controls (Ex: 544 nm/Em: 590 nm/gain: 1260 at 37° C.).

[2] = Ultraviolet (UV) absorbance; format: physicochemical; settings: from 290 nm to 680 nm, Shimadzu LCMS 2020
Excerpt: Minimising UV light absorption of drugs may avoid risk of phototoxicity and photoallergy. For induction of phototoxicity and/or photoallergy, a chemical must absorb light within the range of natural sunlight (290 to 700 nm). Therefore, compounds with no absorbance across the natural sunlight spectrum are advantageous.

scars = assay: Excision injury model in pigs; format: in vivo; settings: daily for 12 weeks
Procedure: Eight full thickness excisions (5×2 cm^2) were made on 5 female juvenile pigs (each weighing 18-20 kg) for a total of 40 injury sites. The entire epidermis and dermal layers of skin were removed by a plastic surgeon in one operation under anaesthesia leaving excisions approximately 5-8 mm in depth. Wounds were dressed and anti-anxiety jackets (Thundershirt; RSPCA) provided to cover wounds. Analgesia was given—buprenorphine injection and fentanyl patch (50 μg/hr) for 10 days, post-surgery—and animals were allowed to recover. The dressings were changed at regular intervals to protect the wounds and prevent infection. Daily treatment started 14 days post-surgery and continued for 12 weeks. […] The surgeons ranked scars in each set of 4 from best to worst (0-3) and the scores for each scar were added and analysed.

Compound	IC50 (recombinant human DAO)	Concentration of Compound 1 in the receptor chamber ([1]; 0 hr)	Concentration of Compound 1 in the receptor chamber ([1]; 2 hr)	Concentration of Compound 1 in the receptor chamber ([1]; 4 hr)	Concentration of Compound 1 in the receptor chamber ([1]; 6 hr)	Concentration of Compound 1 in the receptor chamber ([1]; 20 hr)	permeability and diffusion across the membrane (in words) ([1]; time dependent)	average LOX score (skin fibrosis)	average collagen score (skin fibrosis)	composite skin score (skin fibrosis)	dorsal skin LOX activity compared to the placebos (LOX; cream containing 1% Compound 1, 400 mg/rat)	dorsal skin LOX activity compared to the placebos (LOX; cream containing 3% Compound 1, 200 mg/rat)	LOX activity in the skin of rats (LOX; topical application of cream versus control (FIG. 3))	UV absorbance [2]	scar appearance (scars; pigs, 0, 0.5, 1.5 and 3% oil in water cream)	scar visible versus control scars (scars; pigs, 3% oil in water cream)
N#CCCN [BAPN, β-aminopropionitrile, reference compound]	> 30 µM															
NC/C=C(\F)C(F)(F)S(=O)(=O)c1ccccc1 [Compound 1, (Z)-3,4,4-trifluoro-4-(phenylsulfonyl)but-2-en-1-amine]		0 nM	17 nM	42 nM	166 nM	1742 nM	good permeability and diffusion	significant improvement	significant improvement	significant improvement	significantly lower	significantly lower	reduction	no absorbance	substantial, dose-dependent improvement	significantly less scar visible
CNc1ccccc1S(=O)(=O)C(F)(F)/C(F)=C/CN [Compound 4, (Z)-2-((4-amino-1,1,2-trifluorobut-2-en-yl)sulfony1)-N-methylaniline]	> 30 µM															

Reference: patent publication US20220251036A1, “DIFLUOROHALOALLYLAMINE SULFONE DERIVATIVE INHIBITORS OF LYSYL OXIDASES, METHODS OF PREPARATION, AND USES THEREOF” (PHARMAXIS LTD., priority 2019, published 2022)
